Reference: patent US20260116874A1, “HETEROAROMATIC INDOLESULFONAMIDES” (SEED Therapeutics, Inc., priority 2023, published 2026)
Converted amounts (≈) assume the structure as drawn.

How the values were obtained:
[1] = target: T1, MDR1 (Homo sapiens, UniProt P08183); assay: MDCK-MDR1 permeability / efflux assay; format: in vitro ADME, canine; conditions: dog, MDCK-MDR1, pH 7.4, MDCK-MDR1, 1 μM, 2 hours; Table 3; read-out: MDCK-MDR1 Efflux ratio
T1 construct: expressed in transfected cells; host or cells: MDCK-MDR1 cells (MDCK host)
T1 sequence (P08183 whole entry): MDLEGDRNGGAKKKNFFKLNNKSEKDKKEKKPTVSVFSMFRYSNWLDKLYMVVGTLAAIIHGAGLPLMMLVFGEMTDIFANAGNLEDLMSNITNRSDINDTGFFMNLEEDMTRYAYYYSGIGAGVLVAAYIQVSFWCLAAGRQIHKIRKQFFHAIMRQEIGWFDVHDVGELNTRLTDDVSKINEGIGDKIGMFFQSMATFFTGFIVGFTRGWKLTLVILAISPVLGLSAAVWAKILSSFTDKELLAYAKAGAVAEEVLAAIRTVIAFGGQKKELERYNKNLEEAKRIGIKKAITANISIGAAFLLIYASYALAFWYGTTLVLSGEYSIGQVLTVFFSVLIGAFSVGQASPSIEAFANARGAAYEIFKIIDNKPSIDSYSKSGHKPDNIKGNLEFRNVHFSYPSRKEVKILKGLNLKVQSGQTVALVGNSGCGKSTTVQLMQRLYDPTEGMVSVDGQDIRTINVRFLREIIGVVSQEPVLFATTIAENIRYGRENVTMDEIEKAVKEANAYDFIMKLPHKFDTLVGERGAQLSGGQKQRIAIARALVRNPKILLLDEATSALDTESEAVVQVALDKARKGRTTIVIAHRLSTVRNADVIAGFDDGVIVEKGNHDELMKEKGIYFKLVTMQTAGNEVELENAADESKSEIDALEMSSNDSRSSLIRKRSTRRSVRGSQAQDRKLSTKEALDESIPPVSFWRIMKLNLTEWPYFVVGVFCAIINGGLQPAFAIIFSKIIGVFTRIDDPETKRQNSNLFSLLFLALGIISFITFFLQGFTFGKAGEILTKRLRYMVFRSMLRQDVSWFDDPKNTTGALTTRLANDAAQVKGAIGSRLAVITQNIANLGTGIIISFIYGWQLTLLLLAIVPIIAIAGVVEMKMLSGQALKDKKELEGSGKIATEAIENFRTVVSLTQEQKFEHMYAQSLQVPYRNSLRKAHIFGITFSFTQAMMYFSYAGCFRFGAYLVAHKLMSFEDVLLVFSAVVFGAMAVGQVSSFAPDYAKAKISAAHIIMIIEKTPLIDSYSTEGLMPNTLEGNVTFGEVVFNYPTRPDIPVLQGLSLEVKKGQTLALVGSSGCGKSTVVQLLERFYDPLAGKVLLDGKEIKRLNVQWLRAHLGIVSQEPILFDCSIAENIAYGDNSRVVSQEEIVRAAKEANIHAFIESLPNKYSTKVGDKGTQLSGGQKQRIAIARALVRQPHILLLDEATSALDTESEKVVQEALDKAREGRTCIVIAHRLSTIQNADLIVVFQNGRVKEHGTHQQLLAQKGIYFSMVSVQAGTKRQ
Experimental: To prepare transport buffer (HBSS with 10 mM HEPES, pH 7.4), 2.383 g of HEPES and 0.35 g sodium hydrogen carbonate was accurately weighed and added into 900 mL of pure water, then sonicated to dissolve the content. Into the solution was transferred 100 mL of 10×HBSS, and the solution was placed on a stirrer. The pH of the solution was slowly adjusted with sodium hydroxide to 7.4, followed with filtering.
MDCK-MDR1 plate(s) were removed from the incubator. The monolayer was washed the monolayer twice with pre-warmed HBSS (10 mM HEPES, pH 7.4). Then the plate(s) were incubated at 37° C. for 30 minutes.
Propranolol was used as the high permeability marker. Digoxin was used as the substrate of […] (MDR1). Stock solutions of test compound(s) and digoxin in DMSO at 0.2 mM were prepared and diluted with HBSS (10 mM HEPES, pH 7.4) to get 1 μM working solutions. Stock solutions of propranolol in DMSO at 1 mM was prepared and diluted with HBSS (10 mM HEPES, pH 7.4) to get 5 μM working solutions.
To determine the rate of drug transport in the apical to basolateral direction, 125 μL of the working solution was added to the Transwell insert (apical compartment), and a 50 μL sample was immediately transferred from the apical compartment to 200 μL quenching solvents (acetonitrile with 100 nM alprazolam, 200 nM caffeine, 200 nM labetalol and 100 nM tolbutamide) in a new 96-well plate as the initial donor sample (A-B). The plate was shaken at 1000 rpm for 10 minutes. The wells in the receiver plate (basolateral compartment) were filled with 235 μL of transport buffer. All incubations were performed in duplicate.
To determine the rate of drug transport in the basolateral to apical direction, 285 μL of the 1 μM working solution was added to the receiver plate wells (basolateral compartment), and a 50 μL sample was immediately transferred from the basolateral compartment to 200 μL quenching solvents (acetonitrile with 100 nM alprazolam, 200 nM caffeine, 200 nM labetalol and 100 nM tolbutamide) in a new 96-well plate as the initial donor sample (B-A). Shake the plate at 1000 rpm 10 minutes. The Transwell insert (apical compartment) was filled with 75 μL of transport buffer. The apical to basolateral direction and the basolateral to apical direction were done at the same time.
The Transwell insert plate was inserted into the basolateral plate, transferred into the incubator and incubated at 37° C. for 2 hours.
At the end of the incubation, 50 μL samples from donor sides (apical compartment for Ap→Bl flux, and basolateral compartment for Bl→Ap flux) and receiver sides (basolateral compartment for Ap→Bl flux, and apical compartment for Bl→Ap flux) were transferred to wells of a new 96-well plate, followed by the addition of 4 volume of quenching solvents (acetonitrile with 100 nM alprazolam, 200 nM caffeine, 200 nM labetalol and 100 nM tolbutamide). Samples were Vortexed for 10 minutes and then centrifuged at 3,220 g for 40 minutes. An aliquot of 100 μL of the supernatant was mixed with an appropriate volume of ultra-pure water before LC-MS/MS analysis.
To determine the Lucifer yellow leakage after 2-hour transport period, Lucifer yellow working solutions were prepared by diluting the stock solution with HBSS (10 mM HEPES, pH 7.4) to reach the final concentration of 100 μM. To the apical compartment, 100 μL of the Lucifer yellow solution were added. The plate(s) were incubated at 37° C. for 30 minutes and 80 μL was directly removed from the apical and basolateral wells and transferred to new 96 wells plates. Lucifer yellow fluorescence (to monitor monolayer integrity) was measured in a fluorescence plate reader at 485 nm excitation and 530 nm emission.

[2] = Liver microsomes stability, human; format: in vitro ADME; conditions: 1 μM, Table 3, read-out: Metabolic Stability Half-life, human
Experimental: (§1) A 100 μM test compound solution and PC solution (verapamil) was prepared by adding 2 μL of 10 mM stock solution in DMSO to 198 μL of 50% acetonitrile/50% water.
(§2) Two separate experiments were performed as follows:
(§3) a) With Cofactors (NADPH): 25 μL of 10 mM NADPH was added to the incubations. The final concentrations of microsomes and NADPH were 0.5 mg/mL and 1 mM, respectively.
(§4) b) Without Cofactors (NADPH): 25 μL of 100 mM Phosphate buffer was added to the incubations. The final concentration of microsomes was 0.5 mg/mL. The mixture was pre-warmed at 37° C. for 10 minutes.
(§5) The reaction was started with the addition of 2.5 μL of 100 µM control compound or test compound solutions. Verapamil was used as positive control in this study. The final concentration of test compound or control compound was 1 μM. The incubation solution was incubated in a water bath at 37° C.
(§6) Aliquots of 30 μL were taken from the reaction solution at 0.5, 15, 30, 45 and 60 minutes. The reaction was stopped by the addition of 5 volumes of cold acetonitrile with IS (100 nM alprazolam, 200 nM caffeine and 100 nM tolbutamide).
(§7) Samples were then centrifuged at 3,220 g for 40 minutes. An aliquot of 100 μL of the supernatant was mixed with 100 μL of ultra-pure H2O and then used for LC-MS/MS analysis.
(§8) Single dose PK parameters were also determined for Compound 143, a deuterated derivative of Compound 1, according to the methods described herein. […] Metabolic stability was assessed by measuring the half-life of the test compounds in human and mouse liver microsomes.

[3] = tested on: HCT116 colorectal cells; assay: Cell viability assay (CellTiter-Glo) in HCT116 cells; format: cell-based; conditions: Homo sapiens, HCT-116, 72h, CellTiter-Glo, read-out: HCT116 Assay (IC50)
Experimental: HCT116 colorectal cells were used in these experiments. HCT116 cells were obtained from ATCC. The CellTiter-Glo® Luminescent Cell Viability Assay Reagent was obtained from Promega.
Into a 96-well plate, 3000 HCT116 cells were seeded with 100 μL of media (McCoy's 5A Medium supplemented with 10% FBS, 100 units penicillin, and 100 μg streptomycin per mL) 24h before the experiment. For compound treatment, the liquid handling system-Pico machine was used to prepare all the compounds. Each master plate contained serial dilution of 2 compounds, including the control compound E7820. 10 mM compound stock was added to each well of the assay plate to give final concentrations of […], 0.003, 0.002 and 0 μM. Each concentration was tested in triplicate. After 72h, cell viability was determined using CellTiter-Glo Luminescent Cell Viability Assay Reagent following the manufacturer's recommended protocol. Briefly, equilibrate the assay plate and its contents at room temperature for approximately 30 minutes. 100 μL of CellTiter-Glo reagent was added to each well of the assay plate and the contents were mixed for 2 minutes at 500 rpm on an orbital shaker to induce cell lysis (Fisherbrand). The plate was incubated at room temperature for 10 minutes to stabilize luminescent signal. Then the plate was immediately placed in a plate reader (PerkinElmer Multimode Plate Reader Envision2105) and the luminescence signal (0.5 second per well integration time) was determined. IC50 values were calculated using Graphpad Prism 9 software.
Cell viability assays were performed to compare the potency of Compound 1 to Compound 143.

[4] = General solubility protocol (PBS, pH 7.4); format: physicochemical; conditions: PBS buffer, aqueous buffer, kinetic from dmso stock, pH 7.4, 25° C.
Experimental: Into a 96-well rack, 15 μL of stock solution (10 mM) of each sample was placed. Into each vial of a cap-less Solubility Sample plate 485 μL of buffer was added. The assay was performed in duplicate. To each vial one stir stick was added and each vial was sealed using a molded PTFE/Silicone plug. The Solubility Sample plate was then transferred to an Eppendorf Thermomixer Comfort plate shaker and shake at 25° C. at 1100 RPM for 2 hours. […] Using a vacuum manifold, all the samples were filtered. An aliquot of 5 μL was taken from the filtrate and 5 μL blank DMSO followed by addition of 490 μL of a mixture of H2O and acetonitrile containing an internal standard (1:1). The dilution factor may be changed according to the solubility value and the LC/MS signal response.

[5] = Liver microsomes stability, mouse; format: in vitro ADME; conditions: 1 μM, Table 3, read-out: Metabolic Stability Half-life, mouse
Experimental: as §1, §2, §3, §4, §5, §6, §7, §8

Structure (SMILES)	efflux ratio at 2 h, 1 µM [1]	half-life at 1 µM [2]	IC50 [3]	solubility at 2 h [4]	half-life at 1 µM [5]
Cc1ncc(S(=O)(=O)Nc2ccc(C)c3c(C#N)c[nH]c23)o1 [Compound 2, N-(3-cyano-4-methyl-1H-indol-7-yl)-2-methyl-oxazole-5-sulfonamide]	6.74	> 3.85 h	< 500 nM	292 µM (≈ 92.4 µg/mL)	2.68 h
Cc1ncc(S(=O)(=O)Nc2ccc(C)c3c(Cl)c[nH]c23)s1 [Compound 20, N-(3-chloro-4-methyl-1H-indol-7-yl)-2-methyl-thiazole-5-sulfonamide]	1.11	0.396 h	< 500 nM	1.91 µM (≈ 0.653 µg/mL)	–
Cc1ccc(NS(=O)(=O)c2ccn3ccnc3c2)c2[nH]cc(C#N)c12 [Compound 39]	50.1	1.16 h	–	1.24 µM (≈ 0.436 µg/mL)	0.566 h
Cc1cc(S(=O)(=O)Nc2ccc(C)c3c(C#N)c[nH]c23)sn1 [Compound 57]	4.84	0.557 h	< 500 nM	294 µM (≈ 97.6 µg/mL)	1.02 h
O=S(=O)(Nc1ccc(Cl)c2c(Cl)c[nH]c12)c1cnc(C2(N3CCOCC3)CCC2)s1 [Compound 75]	–	–	500 to 1000 nM	–	–
O=S(=O)(Nc1ccc(Cl)c2c(Cl)c[nH]c12)c1cscn1 [Compound 84]	–	–	500 to 1000 nM	–	–
Cc1ccc(NS(=O)(=O)c2cscn2)c2[nH]cc(C#N)c12 [Compound 85]	–	–	500 to 1000 nM	–	–
COc1ncc(S(=O)(=O)Nc2ccc(C)c3c(C#N)c[nH]c23)s1 [Compound 90]	–	–	< 500 nM	–	–
Cc1ccc(NS(=O)(=O)c2cnc(N(C)S(C)(=O)=O)s2)c2[nH]cc(C#N)c12 [Compound 91]	–	–	< 500 nM	–	–
[2H]C([2H])([2H])c1ncc(S(=O)(=O)Nc2ccc(C)c3c(Cl)c[nH]c23)s1 [Compound 92]	–	–	500 to 1000 nM	–	–
C#Cc1c[nH]c2c(NS(=O)(=O)c3cnc(C)s3)ccc(C)c12 [Compound 104]	–	–	> 1000 nM	–	–
